The subject of test [1] is THP-1 cells. The test can be described thus: Block of protein synthesis in THP-1 cells (Western blot). The format is cell-based, human. The conditions noted are these: THP-1, 30 μg/ml for 1 h before priming with upLPS overnight, FIG. 7E. The protocol: To determine the effects of Nrf2 activating compounds on inflammasome activation, the inventors treated keratinocytes with different doses of SFN, tBHQ, DMF or 15d-PGJ2 and irradiated the cells with UVB. […] As the Nrf2 activators were added to the cells only 15 to 30 min prior to inflammasome activation, it is unlikely that Nrf2 target genes are involved in inflammasome inhibition.
(§1) FIG. 7: (A-C) HPKs were transfected with siRNAs for 3 d as indicated. Scrambled (scr) siRNA and siRNA targeting the unrelated vascular endothelial growth factor (VEGF) served as controls. Western blots of (A) total lysates or (B) nuclear and cytoplasmic lysates and (C) qRT-PCR for expression of target gene expression. (D) HPKs were treated with MG132 (1 μM), PDTC (500 μM) or BAPTA-AM (12.5 μM) for 10 min and harvested (before UV) or irradiated with UVB and harvested after 1 h. Western blots showing expression of Nrf2. (E) Differentiated and primed THP-1 cells were pretreated with cycloheximide (CHX, 30 μg/ml) for 1 h before priming cells with upLPS overnight. Western blots show expression of the indicated proteins. […] Statistics: (C) Mann-Whitney test, related to scr control. *P≤0.05

For test [2], the system named is Nrf2. The test can be described thus: UVB-induced Nrf2 degradation in HPKs (Western blot). In kind it is cell-based, human. The conditions noted are these: harvested after 1 h, FIG. 7D.
From the text: Next, the inventors investigated the activity of Nrf2 upon activation of the NLRP3 inflammasome, since inflammasome activation is ROS-dependent. […] This is surprising, since UVB irradiation is a strong inducer of ROS production and it can be anticipated that the cells would benefit from Nrf2 activation. UVB-induced secretion by HPKs requires expression of NLRP1 and NLRP3 [21]. Both nigericin and MSU crystals are considered as “true” NLRP3 activators, but HPKs cannot phagocytose MSU crystals. Therefore, the inventors treated HPKs with nigericin only and THP-1 cells with either of these NLRP3 activators. […] Therefore, NLRP3 inflammasome activation most likely induces Nrf2 protein degradation. […] However, inflammasome activation-induced Nrf2 degradation was blocked upon ablation of ASC or NLRP3 expression (FIG. 4G) and upon treatment of cells with the ROS blocker PDTC or the Ca2+ chelator BAPTA-AM (Supplementary FIG. 2D). […] However, inflammasome function was not impaired, as reflected by normal processing of pro-IL-18 (FIG. 4H). Although Keap1 expression is partially dispensable for Nrf2 degradation by inflammasome activation, the transcription factor is directed to the proteasome under these conditions, since Nrf2 degradation was inhibited by the proteasome inhibitor MG132 (FIG. 4I and FIG. 7D).
as §1

Test [3] concerns the target T1, NLRP3 inflammasome (Homo sapiens, UniProt Q96P20).
T1 construct: endogenous in cells
In words: Nigericin-induced IL-1β secretion in human PBMCs (ELISA). The format is cell-based. The conditions noted are these: 5 h, FIG. 2C. The source says: (§2) To determine the effects of Nrf2 activating compounds on inflammasome activation, the inventors treated keratinocytes with different doses of SFN, tBHQ, DMF or 15d-PGJ2 and irradiated the cells with UVB.
(§3) SFN, DMF, 15d-PGJ2, tBHQ, zymosan, ATP, poly(dA:dT), cycloheximide, puromycin, and doxycycline were purchased from Sigma (Munich, Germany), nigericin from Enzo Life Sciences (New York, US-NY), MG132 from Calbiochem (Darmstadt, Germany), and blasticidin from Invivogen (Toulouse, France). Release of IL-1p was determined by ELISA according the instructions of the manufacturer (R&D Systems, Minneapolis, US-MN). MSU crystals were prepared by crystallisation of a supersaturated solution of uric acid under mildly basic conditions. Briefly, uric acid was added to a solution of NaOH, the solution was boiled until the uric acid was dissolved and passed through a filter. NaCl was added and crystallisation was performed at 4° C. Crystals were filtered, then dried using a speedvac, weighted and autoclaved.
(§4) (A) HPKs were treated with the indicated concentrations of the Nrf2 activating compound tBHQ irradiated with UVB 30 min later and harvested after 5 h. ELISA measurements were performed for quantification of IL-1β secretion and Western blots for analysis of expression and activation of the indicated proteins. Specific bands are marked with an asterisk. (B) THP-1 cells were differentiated with PMA (27 nM) for 3 d, primed with upLPS (100 ng/ml) overnight, and 1 h before inflammasome activation (5 μM nigericin, 150 μg/ml MSU) treated with SFN (10 μM), 15-PGJ2 (10 μM) or DMF (50 μM) (15-PG: 15-PGJ2). Cells and supernatants were harvested after 5 h and analysed for inflammasome activation by ELISA measurement of IL-1p and Western blots as indicated. (C) Freshly isolated PBMCs from human blood were primed overnight with upLPS (100 ng/ml) and treated with SFN (10 μM), tBHQ (10 μM), DMF (50 μM) or 15-PGJ2 (10 μM) 1 h before inflammasome activation by nigericin (5 μM). ELISA measurement for secretion of IL-1β as readout for inflammasome activation was performed after 5 h. (D) HPKs or (E) differentiated and primed THP-1 cells were pretreated with cycloheximide (CHX, 30 μg/ml) to block protein synthesis for 1 h before SFN (10 μM) was added to the cells and after an additional hour the inflammasome was activated by (D) irradiation with UVB or (E) treatment with nigericin (5 μM). Cells and supernatants were harvested after (D) 6 h or (E) 3.5 h and analysed for inflammasome activation by Western blot as indicated. (A-E) Representative experiments performed at least three times are shown. Statistics: (A-C) Error bars represent the mean±SD of a representative experiment performed in triplicates. One-way ANOVA was performed. **P≤0.01; ***P≤0.001.
(An ELISA detects its analyte on a solid surface through an enzyme-linked reagent.)

The test system of test [4] is Nrf2. In words: Nrf2 stabilisation and nuclear accumulation in human primary keratinocytes (Western blot). The format is cell-based. The settings on record: HPKs, FIG. 6E,F; for expression of the other Nrf2 complex proteins Keap1, Cul3, and Rbx1: 1 h; for stabilisation and nuclear accumulation of Nrf2 protein: harvested after 1 h. As to the method:
(§5) Human primary keratinocytes (HPKs) constitutively express pro-IL-1β and inflammasome proteins.
(§6) FIG. 6: Bone marrow (BM) cells were isolated from Nrf2-deficient mice and wt litterfnates and differentiated into dendritic cells (DCs). (A, B) After priming with upLPS overnight, BMDCs were treated with the NLRP3 inflammasome activators nigericin (20 μM), zymosan (20 μg/ml), MSU (150 μg/ml), ATP (5 mM) or transfected with poly(dA:dT) (1 μg/ml) for activation of the AIM2 inflammasome. After 6 h, supernatants were analysed for secretion of IL-1β by (A) ELISA or (B) Western blot. Mock-treated but primed BMDCs were analysed for expression of inflammasome proteins and pro-IL-1β at the (C) mRNA level by qRT-PCR or at the (D) protein level by Western blot. (B, D) Duplicates from two individual mice per genotype are shown (biological replicates). (E-G) HPKs were treated with the Nrf2 activators SFN (10 μM), tBHQ (10 μM), DMF (50 μM) and 15d-PGJ2 (10 μM). After 1 h, the cells were harvested and analysed for expression of the indicated proteins using total cell lysates (E) or cytoplasmic and nuclear lysates (F). Western blots for the nuclear protein lamin NC and the cytoplasmic protein α-tubulin served as controls. Specific bands are marked with an asterisk. (G) Total RNA was isolated after 8 h and qRT-PCR was performed for quantification of expression of the Nrf2 target genes glutamate-cysteine ligase, catalytic subunit (GCLC), glutamate-cysteine ligase, modifier subunit (GCLM), and NAD(P)H dehydrogenase, quinone 1 (N001). (A-G) Representative experiments performed at least three times are shown. […] Mann-Whitney test was performed. […] Mann-Whitney test was performed. *P≤0.05
(In general: A western blot detects proteins with antibodies after separation by electrophoresis.)

The subject of test [5] is Nrf2 target genes (GCLC, GCLM, NAD(P)H dehydrogenase, quinone 1). In words: Nrf2 target gene expression in HPKs (qRT-PCR). In kind it is cell-based, human. The conditions noted are these: RNA after 8 h, FIG. 6G. As to the method: as §5
qRT-PCR was performed with the LightCycler 480 SYBR Green Master or the FastStart Universal SYBR Green Master (both Roche, Rotkreuz, Switzerland) using total cellular RNA. Specific primer pairs (Supplementary Table 2) were designed to generate an approximately 150 bp fragment flanking an intron-exon border of the corresponding gene. The LightCycler 480 96-well version (ROCHE, Rotkreuz, Switzerland) or the ViiA 7 Real-Time FOR System (Life Technologies, Carlsbad, US-CA) was used for reaction and detection according the instructions of the manufacturer.
as §6

Test [6] deals with NLRP3 inflammasome. In words: UVB irradiation-induced inflammasome activation in HPKs (IL-1β ELISA, Western blot). In kind it is cell-based, human. The settings on record: FIG. 2A, 8A-C; for inflammasome activation (processed caspase-1, mature IL-1β and -18 in the supernatant): different doses, UVB 30 min later, harvested after 5 h.
From the text: as §2, §3, §4
FIG. 8: (A-C) HPKs were treated with the Nrf2 activating compounds (A) SFN, (B) DMF, and (C) 15d-PGJ2, irradiated with UVB 30 min later and harvested after 5 h. Analogous experiment as described in FIG. 2A for tBHQ. (D) THP-1 cells were differentiated with TPA for 3 d and primed with LPS overnight. Then, cells were treated with the solvent DMSO, SFN (10 μM) or 15-PGJ2 (10 μM). After 30 min the inflammasome was activated by nigericin treatment and cells and supernatants were harvested after 2.5 h. Western blots showing prolL-1β and mature IL-1p in the lysate and supernatant. 20% lysate and supernatant of a 12 well was used, respectively, in order to allow a comparison. IL-1β was quantified in the supernatant by ELISA and cytotoxicity by LDH release.

Test [7] concerns the target T1, NLRP3 inflammasome. In words: Inflammasome activation by nigericin/MSU in differentiated, primed THP-1 cells (IL-1β ELISA, Western blot). The format is cell-based. The conditions noted are these: THP-1, 50 μM 1 h before 5 μM nigericin or 150 μg/ml MSU, 5 h, FIG. 2B.
From the text: as §2, §3, §4
(A-C) HPKs were irradiated with (A) UVB or treated with (B) nigericin (5 μM) and cells and supernatants were harvested at different time points as indicated. Western blots for expression and activation of the indicated proteins. Specific bands are marked with an asterisk. (C) Expression of Nrf2 and Nrf2 target genes was determined by qRT-PCR. (D, E) THP-1 cells were differentiated with PMA (27 nM) for 3 d, primed with upLPS (100 ng/ml) overnight and treated with nigericin (5 μM) or MSU (150 μg/ml). Cells and supernatants were harvested at different time points as indicated and analysed for (D) expression and activation of the proteins as indicated by Western blot and (E) expression of Nrf2 and Nrf2 target genes by qRT-PCR. (F) HPKs were transfected with specific siRNAs as indicated (scr: scrambled, c1: caspase-1, K1; Keap1), 2 d later irradiated with UVB or treated with nigericin (5 μM). Cells were harvested after 1 h or 5 h, and lysates were analysed for the expression of the indicated proteins by Western blot.

The test system of test [8] is Nrf2 target genes Gstp1, Nqo1 and Srxn1. In words: Nrf2 target gene expression in liver of treated mice (qRT-PCR). The format is in vivo, mouse. The conditions noted are these: oral gavage 20 mg/kg, FIG. 3F. In general terms: Real-time PCR tracks product formation cycle by cycle.
Procedure: (§7) Monosodium urate (MSU) crystal-induced peritonitis is a mouse model of inflammation and gout, which is dependent on IL-1, IL-1R1, MyD88 and the NLRP3 inflammasome. […] The inventors chose a different way of administration and supplied mice with SFN or DMF by oral gavage to determine a potential anti-inflammatory activity of the Nrf2 activators in vivo (FIG. 3). […] The inventors analysed the cellular infiltrate in the peritoneum 6 h post injection of MSU crystals.
qRT-PCR was performed with the LightCycler 480 SYBR Green Master or the FastStart Universal SYBR Green Master (both Roche, Rotkreuz, Switzerland) using total cellular RNA. Specific primer pairs (Supplementary Table 2) were designed to generate an approximately 150 bp fragment flanking an intron-exon border of the corresponding gene. […]
Mice treated by gavage with (A, B, C) SFN (25 mg/kg) in PBS or (D, E, F) DMF (20 mg/kg) in H2O containing 0.08% methocel and 10% DMSO, vehicle-treated mice served as control. […] Peritonitis was induced by peritoneal injection of 2 mg MSU crystals, (B, E) After 6 h the number of neutrophils of the peritoneal lavage was determined by flow cytornetry. (C, F) At the same time, the liver was isolated and analysed for the expression of the Nrf2 target genes Gstp1, Nqo1 and Srxn1 by qRT-PCR. […]
The subject of test [9] is Monosodium urate (MSU) crystal-induced peritonitis. In words: MSU crystal-induced peritonitis mouse model (neutrophils in peritoneal lavage). The format is in vivo. The settings on record: mice, oral gavage 20 mg/kg for six days, 6 h post 2 mg MSU crystals, vs control mice, n=7, FIG. 3E.
Procedure: as §7
Mice were challenged with 2 mg of MSU crystals for 6 hours as previously described (Chen et a Olin Invest 2006. 116: 2262-2271).
Mice treated by gavage with (A, B, C) SFN (25 mg/kg) in PBS or (D, E, F) DMF (20 mg/kg) in H2O containing 0.08% methocel and 10% DMSO, vehicle-treated mice served as control. Regime for (A) SFN or (D) DMF treatment. Peritonitis was induced by peritoneal injection of 2 mg MSU crystals, (B, E) After 6 h the number of neutrophils of the peritoneal lavage was determined by flow cytornetry. […] Statistics: Student's t-test. (B, C) n≥3, (E, F) n=7. *P≤0.05; **P≤0.01

Molecules are shown by their SMILES. Counter-ions that a name gives are not always drawn.

T1 sequence (Q96P20 whole entry): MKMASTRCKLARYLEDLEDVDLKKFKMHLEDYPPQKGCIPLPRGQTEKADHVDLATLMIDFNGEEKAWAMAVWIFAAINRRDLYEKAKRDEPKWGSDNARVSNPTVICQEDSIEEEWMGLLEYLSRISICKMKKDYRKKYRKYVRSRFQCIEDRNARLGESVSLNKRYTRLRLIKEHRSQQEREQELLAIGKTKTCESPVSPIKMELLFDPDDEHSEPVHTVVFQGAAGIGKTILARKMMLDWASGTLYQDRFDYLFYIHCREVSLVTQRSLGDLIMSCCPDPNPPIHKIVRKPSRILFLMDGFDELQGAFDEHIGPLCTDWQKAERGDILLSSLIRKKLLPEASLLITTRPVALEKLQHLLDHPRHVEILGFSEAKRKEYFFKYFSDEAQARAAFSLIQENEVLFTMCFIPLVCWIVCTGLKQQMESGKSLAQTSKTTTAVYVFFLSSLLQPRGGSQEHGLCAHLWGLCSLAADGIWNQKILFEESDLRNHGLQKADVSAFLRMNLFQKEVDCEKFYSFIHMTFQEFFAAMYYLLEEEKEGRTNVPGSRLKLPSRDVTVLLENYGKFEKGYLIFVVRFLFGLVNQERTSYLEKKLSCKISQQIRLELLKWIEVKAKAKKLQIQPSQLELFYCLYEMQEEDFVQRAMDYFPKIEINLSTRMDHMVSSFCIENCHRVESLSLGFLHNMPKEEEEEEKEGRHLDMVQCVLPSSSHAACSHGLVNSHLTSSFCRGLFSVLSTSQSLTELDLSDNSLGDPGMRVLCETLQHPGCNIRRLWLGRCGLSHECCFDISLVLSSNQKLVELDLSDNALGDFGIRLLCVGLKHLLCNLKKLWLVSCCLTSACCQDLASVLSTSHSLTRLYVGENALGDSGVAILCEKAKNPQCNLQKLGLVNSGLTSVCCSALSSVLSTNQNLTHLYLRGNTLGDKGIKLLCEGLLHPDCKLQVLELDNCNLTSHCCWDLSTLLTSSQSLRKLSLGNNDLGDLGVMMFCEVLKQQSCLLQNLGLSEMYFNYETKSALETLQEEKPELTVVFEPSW

With `C[C@@H]1C[C@@H]([C@H](O)CC2CC(=O)NC(=O)C2)C(=O)[C@@H](C)C1` [cycloheximide], the protein synthesis result in test [1] is reported as “blocks protein synthesis”.
For the compound `CC(=O)OCOC(=O)CN(CC(=O)OCOC(C)=O)c1ccccc1OCCOc1ccccc1N(CC(=O)OCOC(C)=O)CC(=O)OCOC(C)=O` [BAPTA-AM], the “inflammasome activation-induced Nrf2 degradation” value in [2] (12.5 μM for 10 min) is listed as “blocked”.
As for `N.S=C(S)N1CCCC1` [PDTC], in [2] (500 μM for 10 min), the “inflammasome activation-induced Nrf2 degradation” value is “blocked”.
In the case of `CC(C)(C)c1cc(O)ccc1O` [tBHQ, tert-butylhydroquinone], the IL-1β secretion entry in [3] (10 μM 1 h before nigericin (5 μM)) is given as “inhibited IL-1β secretion”. For the same compound, in [4] (10 μM), the “expression of the other Nrf2 complex proteins Keap1, Cul3, and Rbx1” value was “not affected”; the “stabilisation and nuclear accumulation of Nrf2 protein” value is “fast and robust stabilisation and nuclear accumulation of Nrf2 protein”. For the same compound, in test [5] (10 μM), the “expression of classical Nrf2 target genes” value is reported as “induction of classical Nrf2 target genes”. Also, in test [6], the “inflammasome activation (processed caspase-1, mature IL-1β and -18 in the supernatant)” value is on record as “inhibited inflammasome activation in a dose-dependent manner”.
In the case of `COC(=O)/C=C/C(=O)OC` [DMF, dimethyl fumarate], the IL-1β secretion entry in test [3] (50 μM 1 h before nigericin (5 μM)) is on record as “inhibited IL-1β secretion”. For the same compound, in test [4] (50 μM), the “expression of the other Nrf2 complex proteins Keap1, Cul3, and Rbx1” value is recorded as “not affected”; the “stabilisation and nuclear accumulation of Nrf2 protein” value is “fast and robust stabilisation and nuclear accumulation of Nrf2 protein”. Also, the IL-1β secretion entry in test [7] is recorded as “inhibited IL-1β secretion”. Moreover, in test [8], the “expression of Nrf2 target genes in the liver” value is “increased mRNA expression”. The “expression of classical Nrf2 target genes” value in test [5] (50 μM) was “induction of classical Nrf2 target genes”. The “number of neutrophils in the peritoneum” value in test [9] is reported as “significantly reduced”. For the same compound, in [6] (UVB, same concentrations), the “relative efficiency/potency of inflammasome inhibition between compounds” value was “less potent in inflammasome inhibition than SFN”. Also, the “inflammasome activation (processed caspase-1, mature IL-1β and -18 in the supernatant)” value in [6] is recorded as “inhibited inflammasome activation in a dose-dependent manner”.

The values above are taken from patent US20190029987A1, “DIMETHYL FUMARATE (DMF) FOR PREVENTION OR TREATMENT OF GOUT, ACNE, DIABETES, VITILIGO AND/OR PYODERMA GANGRENOSUM” (UNIVERSITAT ZURICH, priority 2016, published 2019).
